Reference: patent US20050277660A1, “Novel tetrahydroquinoline derivatives” (priority 2002, published 2005)

Experiments:
[1] = tested on: Orchiectomized (ORX) Rats; assay: Effect on prostate, femoral bone mineral density and levator ani muscle in ORX rats, subcutaneous (Test Example 2); format: in vivo, rat; conditions: 4 weeks; for Femoral bone mineral density / Levator ani muscle weight / Prostate weight: 5 days per week, Mean ± SD; for Femoral bone mineral density: DEXA, right femur
Source text: (§1) Effect on Prostate, Femoral Bone Mineral Density, and Levator Ani Muscle in Orchiectomized (ORX) Rats
Testes were removed from 12-week-old male SD rats. […] The compound of the Example and the DHT were each dissolved in dimethyl sulfoxide, and then diluted 10-fold with olive oil. The resulting solution of each concentration was used in the test. In an ORX control group, dimethyl sulfoxide diluted 10-fold with olive oil was used for the test.

[2] = tested on: Orchiectomized (ORX) Rats; assay: Effect on prostate, femoral bone mineral density and levator ani muscle in ORX rats, subcutaneous (Test Example 3); format: in vivo, rat; conditions: 4 weeks; for Femoral bone mineral density / Levator ani muscle weight / Prostate weight: 5 days per week, Mean ± SD; for Femoral bone mineral density: DEXA, right femur
Source text: as §1
Testes were removed from 12-week-old male SD rats. […] The compounds of the Examples and the DHT were each dissolved in dimethyl sulfoxide, and then diluted 10-fold with olive oil. The resulting solution of each concentration was used in the test. In an ORX control group, dimethyl sulfoxide diluted 10-fold with olive oil was used for the test.

[3] = molecular target: T1, Rat Androgen Receptors (Rat AR) (Rattus norvegicus, UniProt P15207); assay: Test for competitive binding to rat androgen receptors (Test Example 1); conditions: 100×(IC50 of bicalutamide)/(IC50 of compound); bicalutamide taken as 100; 3H-testosterone, rat prostate AR fraction
T1 construct: from tissue; host or cells: prostate of orchiectomized male SD rats (100,000 x g supernatant of the homogenate)
T1 sequence (P15207 1-902): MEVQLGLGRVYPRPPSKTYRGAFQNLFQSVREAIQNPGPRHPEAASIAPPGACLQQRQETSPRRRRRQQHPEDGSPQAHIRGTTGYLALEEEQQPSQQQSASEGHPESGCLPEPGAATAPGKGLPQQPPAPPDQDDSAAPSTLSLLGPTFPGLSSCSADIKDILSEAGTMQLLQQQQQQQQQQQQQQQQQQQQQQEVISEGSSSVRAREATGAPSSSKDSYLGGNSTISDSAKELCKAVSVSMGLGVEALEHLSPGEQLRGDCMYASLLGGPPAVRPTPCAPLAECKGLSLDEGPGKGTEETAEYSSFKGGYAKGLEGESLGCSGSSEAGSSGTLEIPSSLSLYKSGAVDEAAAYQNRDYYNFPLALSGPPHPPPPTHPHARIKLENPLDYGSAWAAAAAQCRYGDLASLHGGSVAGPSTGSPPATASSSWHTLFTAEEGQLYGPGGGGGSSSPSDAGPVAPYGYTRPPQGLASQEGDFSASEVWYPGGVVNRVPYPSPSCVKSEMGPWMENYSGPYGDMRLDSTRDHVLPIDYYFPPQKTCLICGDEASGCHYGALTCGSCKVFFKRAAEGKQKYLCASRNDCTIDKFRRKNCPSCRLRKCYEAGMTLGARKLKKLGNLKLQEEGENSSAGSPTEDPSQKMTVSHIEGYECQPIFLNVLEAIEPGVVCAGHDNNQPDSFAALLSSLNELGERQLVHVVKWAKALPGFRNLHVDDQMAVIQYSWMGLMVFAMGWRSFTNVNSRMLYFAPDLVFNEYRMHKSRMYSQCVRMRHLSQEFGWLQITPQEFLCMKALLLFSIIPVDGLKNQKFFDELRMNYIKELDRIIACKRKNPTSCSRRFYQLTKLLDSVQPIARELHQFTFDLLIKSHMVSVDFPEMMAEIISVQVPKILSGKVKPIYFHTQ
Experimental: Test for Competitive Binding to Rat Androgen Receptors (Rat AR)
Preparation of rat AR fraction: Prostates were harvested into ice-cooled ET buffer (10 mM Tris, 1 mM EDTA, 5 mM DTT, 10 mM sodium molybdate, pH 7.4) 3 days after orchiectomy in 11-week-old male SD rats. The prostate was finely cut, and ET buffer was added, whereafter the mixture was homogenized using a homogenizer. The homogenate was ultracentrifuged (100,000×g, 60 min, 4° C.), and the supernatant was used as a rat AR fraction (hereinafter referred to as ARF).
Binding test: ^3H-testosterone (hereinafter referred to as ^3H-T) was diluted with ET buffer. Dihydrotestosterone (DHT) was prepared so as to have a concentration (final concentration 1 μM) 400 times the maximum concentration of ^3H-T (2.5 nM). The ^3H-T solution was added to a 1.5 ml tube containing DHT, no DHT, or various concentrations of a test compound. Further, 200 μg ARF was added to adjust the final volume to 100 μl. The mixture was incubated for 2 hours at 4° C., and then 300 μl of a 0.05% dextran T70-1.0% activated carbon solution was added. The mixture was further incubated for 15 minutes in ice to remove the free ^3H-T by adsorption. […] The mixture was stirred, allowed to stand, and measured for ^3H radioactivity with a liquid scintillation counter.

[4] = tested on: Orchiectomized (ORX) Rats; assay: Effect of oral administration on prostate, femoral bone mineral density and levator ani muscle in ORX rats (Test Example 4); format: in vivo, rat; conditions: 30 mg/kg orally twice daily, 4 weeks
Experimental: Effect of the Oral Administration on Prostate, Femoral Bone Mineral Density, and Levator Ani Muscle in Orchiectomized (ORX) Rats
Testes were removed from 12-week-old male SD rats. From the following day onward, the compound of Example 16 (30 mg/5 ml/kg) was orally administered twice daily for 4 consecutive weeks on 7 days per week. The test compound was suspended in a 0.5% methylcellulose solution as a solvent, and used in the test. In an ORX control group, a 0.5% methylcellulose solution (5 ml/kg) was administered. The rats, which had not been orchiectomized, but had been subjected to laparotomy, followed by closure of the abdomen, were used as a sham control group. On the next day after final administration, the wet weights of the ventral prostate and the levator ani muscle were measured, and the bone mineral density of the right femur was measured by the DEXA method (dual energy X-ray absorptiometry), to evaluate the in vivo effect of the compound of Example 16.

CC(C)(CNC(=O)c1ccc(OC(F)(F)F)cc1)[C@H]1Nc2ccc(C#N)cc2[C@H]2CCC[C@H]21 (relative stereo) [Example 1, (3aR*,4S*,9bS*)-N-[2-(8-cyano-2,3,3a,4,5,9b-hexahydro-1H-cyclopenta[c]quinolin-4-yl)-2-methylpropyl]-4-trifluoromethoxybenzamide]
Femoral bone mineral density ([1]; 30 mg/kg s.c. once daily): 137 ± 7 mg/cm^2
Levator ani muscle weight ([1]; 30 mg/kg s.c. once daily): 60 ± 6 mg/100 g body weight
Prostate weight ([1]; 30 mg/kg s.c. once daily): 70 ± 13 mg/100 g body weight
weight of the prostate relative to that in the sham control group ([1]; 30 mg/kg s.c.): about 74%

CC(C)(CNC(=O)c1ccc(OCC(F)(F)F)cc1)[C@H]1Nc2ccc(C#N)cc2[C@H]2CCC[C@H]21 (relative stereo) [Example 8, (3aR*,4S*,9bS*)-N-[2-(8-Cyano-2,3,3a,4,5,9b-hexahydro-1H-cyclopenta[c]quinolin-4-yl)-2-methylpropyl]-4-(2,2,2-trifluoroethoxy)benzamide]
Femoral bone mineral density ([2]; 30 mg/kg s.c. once daily): 136 ± 3 mg/cm^2
Levator ani muscle weight ([2]; 30 mg/kg s.c. once daily): 58 ± 6 mg/100 g body weight
Prostate weight ([2]; 30 mg/kg s.c. once daily): 62 ± 10 mg/100 g body weight
weight of the prostate relative to that in the sham control group ([2]; 30 mg/kg s.c.): about 50%

CC(C)(CNC(=O)c1ccc(NC=O)cc1)[C@H]1Nc2ccc(C#N)cc2[C@H]2CCC[C@H]21 (relative stereo) [Example 16, (3aR*,4S*,9bS*)-N-[2-(8-Cyano-2,3,3a,4,5,9b-hexahydro-1H-cyclopenta[c]quinolin-4-yl)-2-methylpropyl]-4-formylaminobenzamide]
RBA (relative binding inhibition rate, Relative Binding Affinity) [3]: 406
weight of the prostate relative to that in the sham control group [4]: about 90%
Femoral bone mineral density ([4]; 7 days per week, DEXA, right femur, Mean ± SD): 136 ± 10 mg/cm^2
Levator ani muscle weight ([4]; 7 days per week, Mean ± SD): 60 ± 6 mg/100 g body weight
Prostate weight ([4]; 7 days per week, Mean ± SD): 90 ± 24 mg/100 g body weight

CC(=O)Nc1ccc(C(=O)NCC(C)(C)[C@H]2Nc3ccc(C#N)cc3[C@H]3CCC[C@H]32)cn1 (relative stereo) [Example 23, (3aR*,4S*,9bS*)-6-Acetamido-N-[2-(8-cyano-2,3,3a,4,5,9b-hexahydro-1H-cyclopenta[c]quinolin-4-yl)-2-methylpropyl]nicotinamide]
RBA (relative binding inhibition rate, Relative Binding Affinity) [3]: 420
Femoral bone mineral density ([2]; 30 mg/kg s.c. once daily): 137 ± 5 mg/cm^2
Levator ani muscle weight ([2]; 30 mg/kg s.c. once daily): 72 ± 6 mg/100 g body weight
Prostate weight ([2]; 30 mg/kg s.c. once daily): 111 ± 14 mg/100 g body weight
weight of the prostate relative to that in the sham control group ([2]; 30 mg/kg s.c.): about 90%

C[C@]12CCC(=O)C[C@@H]1CC[C@@H]1[C@@H]2CC[C@]2(C)[C@@H](O)CC[C@@H]12 [DHT, dihydrotestosterone, reference compound]
Femoral bone mineral density ([1]; 10 mg/kg s.c. once daily): 138 ± 6 mg/cm^2
Levator ani muscle weight ([1]; 10 mg/kg s.c. once daily): 74 ± 6 mg/100 g body weight
Prostate weight ([1]; 10 mg/kg s.c. once daily): 166 ± 33 mg/100 g body weight
weight of the prostate relative to that in the sham control group ([1]; 10 mg/kg s.c.): about 175%
Femoral bone mineral density ([2]; 10 mg/kg s.c. once daily): 138 ± 6 mg/cm^2
Levator ani muscle weight ([2]; 10 mg/kg s.c. once daily): 85 ± 9 mg/100 g body weight
Prostate weight ([2]; 10 mg/kg s.c. once daily): 162 ± 27 mg/100 g body weight
weight of the prostate relative to that in the sham control group ([2]; 10 mg/kg s.c.): about 130%
